{"source": "patent US7038077B2", "about": "“Prodrugs of excitatory amino acids” (Eli Lilly and Company, priority 2001, dated 2006)"}
{"smiles": "Cl.N[C@@]1(C(=O)OCc2ccccc2C(F)(F)F)CC[C@H]2[C@H](C(=O)O)[C@H]21", "melting point": "> 175 °C (dec.)"}
{"smiles": "Cl.N[C@@]1(C(=O)OCc2ccc(Cl)cc2Cl)CC[C@H]2[C@H](C(=O)O)[C@H]21", "note": "[Example 29, (1S,2S,5R,6S)-2-Amino-bicyclo[3.1.0]hexane-2,6-dicarboxylic acid 2-(2′,4′-dichloro)benzyl ester hydrochloride]", "melting point": "135 to 137 °C"}
{"smiles": "Cl.N[C@@]1(C(=O)OCc2ccccc2F)CC[C@H]2[C@H](C(=O)O)[C@H]21", "note": "[Example 31, (1S,2S,5R,6S)-2-Amino-bicyclo[3.1.0]hexane-2,6-dicarboxylic acid 2-(2′-fluoro)benzyl ester hydrochloride]", "melting point": "> 220 °C (dec.)"}
{"smiles": "Cl.N[C@@]1(C(=O)OCc2cc(Cl)ccc2Cl)CC[C@H]2[C@H](C(=O)O)[C@H]21", "note": "[Example 33, (1S,2S,5R,6S)-2-Amino-bicyclo[3.1.0]hexane-2,6-dicarboxylic acid 2-(2′,5′-dichloro)benzyl ester hydrochloride]", "melting point": "173 to 175 °C"}
{"smiles": "Cl.N[C@@]1(C(=O)OCc2ccccc2Br)CC[C@H]2[C@H](C(=O)O)[C@H]21", "note": "[Example 34, (1S,2S,5R,6S)-2-Amino-bicyclo[3.1.0]hexane-2,6-dicarboxylic acid 2-(2′-bromo)benzyl ester hydrochloride]", "melting point": "190 to 191 °C"}
{"smiles": "Cl.N[C@@]1(C(=O)OCc2cc(F)cc(F)c2)CC[C@H]2[C@H](C(=O)O)[C@H]21", "note": "[Example 35, (1S,2S,5R,6S)-2-Amino-bicyclo[3.1.0]hexane-2,6-dicarboxylic acid 2-(3′,5′-difluoro)benzyl ester hydrochloride]", "melting point": "98 to 99 °C"}
{"smiles": "Cc1ccc(C)c(COC(=O)[C@]2(N)CC[C@H]3[C@H](C(=O)O)[C@H]32)c1.Cl", "note": "[Example 41, (1S,2S,5R,6S)-2-Amino-bicyclo[3.1.0]hexane-2,6-dicarboxylic acid 2-(2′,5′-dimethyl)benzyl ester hydrochloride]", "melting point": "70 °C (dec.)"}
{"smiles": "COc1ccccc1COC(=O)[C@]1(N)CC[C@H]2[C@H](C(=O)O)[C@H]21", "note": "[Example 48, (1S,2S,5R,6S)-2-Amino-bicyclo[3.1.0]hexane-2,6-dicarboxylic acid 2-(2′-methoxy)benzyl ester]", "melting point": "195 °C (dec.)"}
{"smiles": "N[C@@]1(C(=O)OCc2cccc(F)c2)CC[C@H]2[C@H](C(=O)O)[C@H]21", "note": "[Example 54, (1S,2S,5R,6S)-2-Amino-bicyclo[3.1.0]hexane-2,6-dicarboxylic acid 2-(3′-fluoro)benzyl ester]", "melting point": "225 °C (dec.)"}
